Laboratory results published in patent US8084459B2, “Substituted quinazolinones for treating neurological conditions” (Prana Biotechnology Ltd, priority 2004, dated 2011).

System: Aβ1-42 toxicity in neuronal cortical cells
Test: Assay 3(c) Aβ neurotoxicity and neuroprotection (MTS)
Assay type: cell-based, mouse
Details: 20 uM Aβ1-42, cortical neurons, 4 days
Description: Primary Cortical Neuronal Cultures
Cortical cultures were prepared as previously described (White et al., 1998). Embryonic day 14 BL6Jx129sv mouse cortices were removed, dissected free of meninges and dissociated in 0.025% (wt/vol) trypsin. Dissociated cells were plated in 48 well culture plates at a density of 2×10^6 cells/mL in MEM with 25% (vol/vol) FCS and 5% (vol/vol) HS and incubated at 37° C., 2 hrs. Media was then replaced with Neurobasal media (Invitrogen Life Technologies) and B27 supplements (Invitrogen Life Technologies). Cultures were maintained at 37° C. in 5% CO2. Prior to experimentation, the culture medium was replaced with Neurobasal media and B27 minus antioxidants (Invitrogen Life Technologies).
(c) Assay for Aβ Neurotoxicity and Aβ Neuroprotection
Neuronal cortical cells were cultured for five days as per Assay 2. On day six the neurobasal (NB) media (Invitrogen Life Technologies) and B27 supplement (Invitrogen Life Technologies) were replaced with NB media and B27 supplement (no antioxidants). On day six, test compounds were individually added to the neuronal cell cultures:
(§1) The test compounds were dissolved in 100% DMSO to a concentration of 2.5 mM (10 mM if excess compound was weighed out per vial—then diluted to 2.5 mM). 2.5 mM stock solution was serially diluted 1 in 10 to give working solutions of 250 uM, 25 uM, 2.5 uM.
Aβ was initially dissolved in 20 mM NaOH to a concentration of 1 mM and sonicated for 5 minutes. The peptide was then diluted in H2O and 10×PBS to a final concentration of 200 uM Aβ in 1× PBS. The peptide was again sonicated for 5 minutes and then spun at 14000 rpm for 5 min and transferred to a fresh tube.
as §1, with “in 10 [in NB media and B27 (no antioxidants)] to give” for “in 10 to give”, “2.5 uM. Test compounds were not added directly to cells, instead they were added to a 48 well ‘Drug Plate’ as comprised below:” for “2.5 uM.”
Preparation of “Drug Plate”:
Well 1: 515 ul NB+B27 (no antioxidant)*+24 ul 25 uM test compound+60 ul Aβ diluent**
Well 2: 515 ul NB+B27 (no antioxidant)+24 ul 250 uM test compound+60 ul Aβ diluent
Well 3: 515 ul NB+B27 (no antioxidant)+24 ul test compound diluent***+60 ul Aβ1-42
Well 4: 515 ul NB+B27 (no antioxidant)+24 ul 2.5 uM test compound+60 ul Aβ1-42
Well 5: 515 ul NB+B27 (no antioxidant)+24 ul 25 uM test compound+60 ul Aβ1-42
Well 6: 515 ul NB+B27 (no antioxidant)+24 ul 250 uM test compound+60 ul Aβ1-42 diluent
Well 7: 515 ul NB+B27 (no antioxidant)+24 ul test compound diluent+60 ul Aβ1-42 diluent
Well 8: 600 ul NB+B27 (no antioxidant)
The Drug Plate was incubated at 37° C. for 15 mins. 200 ul of each well was added in triplicate to the corresponding cell plate. The cell plate was incubated at 37 C, for 4 days.
* NB media+B27 (no antioxidants)
** Aβ diluent 2 mM NaOH, 1×PBS
*** PBT diluent 10% DMSO in NB+B27 (no antioxidant)
On the 4th day after treating the cells the assay is completed by adding MTS to the cells.

Cc1nc(Cn2cnc3c(O)c(Cl)cc(Cl)c3c2=O)cs1 [Compound 1084]
Assay 3(c) Neuroprotection (% inhibition of Abeta toxicity): 2%

Cc1noc(C)c1Cn1cnc2c(O)c(Cl)cc(Cl)c2c1=O [Compound 1085]
Assay 3(c) Neuroprotection (% inhibition of Abeta toxicity): 7%
